Test results published in US7022846B2, “Metabolites of prinomastat and their synthesis” (Agouron Pharmaceuticals, Inc., priority 2002, dated 2006).

What was measured:
hSLN = hSLN (Homo sapiens, UniProt P08254); experiment: Ki for MMP inhibition, hSLN; type: biochemical
Source text: (§1) The present invention is further directed to methods of inhibiting metalloproteinase activity, for example in mammalian tissue, by administering metabolites of prinomastat, such as a compound of the formula 11 or 22, or a pharmaceutically acceptable prodrug, salt or solvate thereof. The activity of the inventive compounds as inhibitors of metalloproteinase activity, such as the activity of MMPs (including stromelysins, collagenases, gelatinases, and/or matrilysin) and/or TNF-[…] convertase, may be measured by any of the methods available to those skilled in the art, including in vivo and/or in vitro assays. Examples of suitable assays fro activity measurements include those described in Anal. Biochem., 147, 437 (1995), Anal. Biochem., 180, 110 (1989), FEBS, 96, 263 (1992) and European Patent Application No. 0 606 046.

[1] = Metabolic composition of human plasma after single oral dose of prinomastat (LC-MS/MS); type: in vivo; conditions: single 100 mg oral dose of prinomastat
Description: Five healthy male volunteers received a 100 mg oral dose of prinomastat tablets in a phase I, double-blind, ascending single dose study. Blood samples were drawn at pre-selected time points, and the plasma was separated by centrifugation and stored at −20° C.
The human plasma samples at 1.5, 4, 8 and 12 hours pooled from five male volunteers were selected for the analysis of metabolites by liquid chromatography tandem mass spectroscopy (LC-MS/MS). Samples were treated with three volumes of an AcN:MeOH mixture (2:1) to precipitate plasma proteins. Following centrifugation, protein pellets were separated and washed twice with two volumes of the same AcN:MeOH mixture. The combined supernatant was evaporated to dryness under vacuum using a SpeedVac™ (Savant Instrument, Holbrook, N.Y.), and the dried residue was reconstituted in 0.1% formic acid-acetonitrile (90:10), and analyzed by LC-MS/MS.
Two LC-MS/MS systems were used to analyze the plasma samples. […]
The relative peak heights of prinomastat and its metabolites in the LC-MS reconstructed ion chromatograms (RIC) were used to estimate the relative abundance of each component, which was expressed as percent of total prinomastat related compounds. […]
Human plasma pooled from five male volunteers was analyzed for metabolites at 1.5 hr, 4, 8 and 12 hours. […]

hMATR = molecular target: T1, hMATR (Homo sapiens, UniProt P09237); experiment: Ki for MMP inhibition, hMATR; type: biochemical
T1 sequence (P09237 95-267): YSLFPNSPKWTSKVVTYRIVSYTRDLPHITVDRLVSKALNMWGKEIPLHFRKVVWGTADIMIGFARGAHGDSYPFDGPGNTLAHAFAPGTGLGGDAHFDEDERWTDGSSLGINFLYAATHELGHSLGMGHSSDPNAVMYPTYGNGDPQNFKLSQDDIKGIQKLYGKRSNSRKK
Source text: as §1

hCOL3 = hCOL3 (Homo sapiens, UniProt P45452); experiment: Ki for MMP inhibition, hCOL3; type: biochemical
Source text: as §1

hCOL1 = molecular target: T2, hCOL1 (Homo sapiens, UniProt P03956); experiment: Ki for MMP inhibition, hCOL1; type: biochemical
T2 sequence (P03956 100-469): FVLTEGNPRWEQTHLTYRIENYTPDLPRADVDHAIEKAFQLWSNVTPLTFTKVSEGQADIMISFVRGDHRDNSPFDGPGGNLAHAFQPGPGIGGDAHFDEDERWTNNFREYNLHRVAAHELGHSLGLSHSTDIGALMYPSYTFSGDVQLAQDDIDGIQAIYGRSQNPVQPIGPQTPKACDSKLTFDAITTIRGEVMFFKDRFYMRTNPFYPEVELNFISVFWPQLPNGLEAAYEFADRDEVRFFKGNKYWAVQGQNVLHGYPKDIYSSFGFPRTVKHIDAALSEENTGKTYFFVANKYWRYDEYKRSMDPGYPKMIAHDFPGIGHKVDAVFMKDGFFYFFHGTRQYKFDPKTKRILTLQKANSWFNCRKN
Source text: as §1

hGELA = molecular target: T3, hGELA (Homo sapiens, UniProt P08253); experiment: Ki for MMP inhibition, hGELA; type: biochemical
T3 sequence (P08253 110-660): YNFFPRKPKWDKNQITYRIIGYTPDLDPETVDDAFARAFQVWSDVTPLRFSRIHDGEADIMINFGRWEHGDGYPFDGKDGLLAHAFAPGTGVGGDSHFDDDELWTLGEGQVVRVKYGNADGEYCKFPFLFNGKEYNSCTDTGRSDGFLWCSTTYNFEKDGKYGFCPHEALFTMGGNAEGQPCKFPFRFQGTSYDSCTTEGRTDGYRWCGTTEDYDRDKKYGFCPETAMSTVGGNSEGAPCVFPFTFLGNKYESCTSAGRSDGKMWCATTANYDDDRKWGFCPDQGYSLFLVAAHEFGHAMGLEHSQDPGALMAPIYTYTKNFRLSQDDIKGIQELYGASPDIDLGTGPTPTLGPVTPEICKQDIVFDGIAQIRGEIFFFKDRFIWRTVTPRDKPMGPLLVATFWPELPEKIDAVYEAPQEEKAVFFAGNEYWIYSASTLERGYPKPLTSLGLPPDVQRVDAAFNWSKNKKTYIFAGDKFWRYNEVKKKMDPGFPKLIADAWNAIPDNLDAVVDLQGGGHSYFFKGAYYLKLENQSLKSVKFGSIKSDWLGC
Source text: as §1

Chain of hSLN (P08254 100-477): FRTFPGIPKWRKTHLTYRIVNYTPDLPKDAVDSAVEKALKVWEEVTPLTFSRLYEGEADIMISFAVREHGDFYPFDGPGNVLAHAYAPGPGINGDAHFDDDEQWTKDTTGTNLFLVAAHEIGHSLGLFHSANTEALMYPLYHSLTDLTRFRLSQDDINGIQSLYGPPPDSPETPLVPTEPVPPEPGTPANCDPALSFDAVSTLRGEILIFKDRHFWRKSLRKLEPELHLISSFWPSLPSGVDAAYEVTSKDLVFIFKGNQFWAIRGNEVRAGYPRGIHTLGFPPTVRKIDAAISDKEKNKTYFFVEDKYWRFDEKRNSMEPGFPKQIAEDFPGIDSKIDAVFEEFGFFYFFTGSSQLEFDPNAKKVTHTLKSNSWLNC

Row | Structure (SMILES) | Ki (hSLN) [nM] | share of the total drug-related substance in human plasma ([1]; later time points) [%] | Ki (hMATR) [nM] | Ki (hCOL3) [nM] | Ki (hCOL1) [nM] | Ki (hGELA) [nM] | relative abundance among circulating drug-related compounds in human plasma ([1]; early time points)
1 | CC1(C)SCCN(S(=O)(=O)c2ccc(Oc3cc[n+]([O-])cc3)cc2)[C@H]1C(=O)NO [M6, (3S)-N-hydroxy-4-(4-((1-oxy-pyrid-4-yl)oxy)benzenesulfonyl)-2,2-dimethyl-tetrahydro-2H-1,4-thiazine-3-carboxamide] | 5.1 | ≤ 50 | 1140 | 4 | 396 | 6.6 | 
2 | CC1(C)SCCN(S(=O)(=O)c2ccc(Oc3ccncc3)cc2)[C@H]1C(=O)NO [parent drug, (3S)-N-hydroxy-4-(4-(pyrid-4-yloxy)benzenesulfonyl)-2,2-dimethyl-tetrahydro-2H-1,4-thiazine-3-carboxamide, reference compound] |  |  |  |  |  |  | major circulating compound
